According to PubChem BioAssay (NCI):
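Dose response: 5 concentrations. Exposure: 48 h. Format: 96-well plates. Endpoint: linear interpolation; highest concentration if not reached. Here, GI50 denotes the concentration required for 50% inhibition of growth. TGI is the concentration that stops growth completely.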

How the values were obtained:
Test in all cases: NCI anticancer screen, dose series, 48 h
[1] = system: 786-0 renal
[2] = system: A498 renal
[3] = system: A549 NSCLC
[4] = system: ACHN renal
[5] = system: BT-549 breast
[6] = system: CAKI-1 renal
[7] = system: CCRF-CEM leukemia
[8] = system: COLO 205 colon
[9] = system: DU-145 prostate
[10] = system: EKVX NSCLC
[11] = system: HCC-2998 colon
[12] = system: HCT-116 colon
[13] = system: HCT-15 colon
[14] = system: HL-60(TB) leukemia
[15] = system: HOP-62 NSCLC
[16] = system: HOP-92 NSCLC
[17] = system: HS 578T breast
[18] = system: HT29 colon
[19] = system: IGROV1 ovarian
[20] = system: K-562 leukemia
[21] = system: KM12 colon
[22] = system: LOX IMVI melanoma
[23] = system: M14 melanoma
[24] = system: MALME-3M melanoma
[25] = system: MCF7 breast
[26] = system: MDA-MB-231 breast
[27] = system: MDA-MB-435
[28] = system: MOLT-4 leukemia
[29] = system: NCI-H226 lung
[30] = system: NCI-H23 lung
[31] = system: NCI-H460 lung
[32] = system: NCI-H522 lung
[33] = system: NCI/ADR-RES ovarian
[34] = system: OVCAR-3 ovarian
[35] = system: OVCAR-4 ovarian
[36] = system: OVCAR-5 ovarian
[37] = system: OVCAR-8 ovarian
[38] = system: PC-3 prostate
[39] = system: RPMI-8226 leukemia
[40] = system: RXF 393 renal
[41] = system: SF-268 CNS
[42] = system: SF-295 CNS
[43] = system: SF-539 CNS
[44] = system: SK-MEL-2 melanoma
[45] = system: SK-MEL-28 melanoma
[46] = system: SK-MEL-5 melanoma
[47] = system: SK-OV-3 ovarian
[48] = system: SN12C renal
[49] = system: SNB-19 CNS
[50] = system: SNB-75 CNS
[51] = system: SW-620 colon
[52] = system: T-47D breast
[53] = system: TK-10 renal
[54] = system: U251 CNS
[55] = system: UACC-62 melanoma
[56] = system: UO-31 renal

COc1cc(-c2csc(NC(=O)Nc3ccc(Cl)c(C(F)(F)F)c3)n2)cc(OC)c1OC
GI50 [1]: 2080 nM | TGI [1]: 6470 nM | GI50 [2]: 260 nM | TGI [2]: 1710 nM | GI50 [3]: 1380 nM | TGI [3]: 4750 nM | GI50 [4]: 1270 nM | TGI [4]: 3570 nM | GI50 [5]: 1940 nM | TGI [5]: 5550 nM | GI50 [6]: 1370 nM | TGI [6]: 3620 nM | GI50 [7]: 2240 nM | TGI [7]: 12800 nM | GI50 [8]: 1650 nM | TGI [8]: 3460 nM | GI50 [9]: 1790 nM | TGI [9]: 6670 nM | GI50 [10]: 1190 nM | TGI [10]: 7030 nM | GI50 [11]: 2950 nM | TGI [11]: 10600 nM | GI50 [12]: 1420 nM | TGI [12]: 7930 nM | GI50 [13]: 1540 nM | TGI [13]: 10700 nM | GI50 [14]: 1760 nM | TGI [14]: 6050 nM | GI50 [15]: 1700 nM | TGI [15]: 4570 nM | GI50 [16]: 357 nM | TGI [16]: 2220 nM | GI50 [17]: 1670 nM | TGI [17]: 5470 nM | GI50 [18]: 1800 nM | TGI [18]: 4680 nM | GI50 [19]: 1830 nM | TGI [19]: 9300 nM | GI50 [20]: 1160 nM | TGI [20]: 11300 nM | GI50 [21]: 764 nM | TGI [21]: 4930 nM | GI50 [22]: 1530 nM | TGI [22]: 3480 nM | GI50 [23]: 2260 nM | TGI [23]: 7300 nM | GI50 [24]: 1970 nM | TGI [24]: 5570 nM | GI50 [25]: 1870 nM | TGI [25]: 10100 nM | GI50 [26]: 1470 nM | TGI [26]: 3930 nM | GI50 [27]: 1810 nM | TGI [27]: 4840 nM | GI50 [28]: 1130 nM | TGI [28]: 4350 nM | GI50 [29]: 1740 nM | TGI [29]: 6030 nM | GI50 [30]: 1470 nM | TGI [30]: 6060 nM | GI50 [31]: 1370 nM | TGI [31]: 3500 nM | GI50 [32]: 1100 nM | TGI [32]: 3570 nM | GI50 [33]: 1500 nM | TGI [33]: 5530 nM | GI50 [34]: 1160 nM | TGI [34]: 3120 nM | GI50 [35]: 1150 nM | TGI [35]: 4530 nM | GI50 [36]: 2350 nM | TGI [36]: 10500 nM | GI50 [37]: 1380 nM | TGI [37]: 3660 nM | GI50 [38]: 494 nM | TGI [38]: 3360 nM | GI50 [39]: 573 nM | TGI [39]: 4100 nM | GI50 [40]: 1600 nM | TGI [40]: 3900 nM | GI50 [41]: 2250 nM | TGI [41]: 10400 nM | GI50 [42]: 1130 nM | TGI [42]: 2640 nM | GI50 [43]: 1890 nM | TGI [43]: 5470 nM | GI50 [44]: 1800 nM | TGI [44]: 4570 nM | GI50 [45]: 2600 nM | TGI [45]: 11300 nM | GI50 [46]: 1180 nM | TGI [46]: 2440 nM | GI50 [47]: 1980 nM | TGI [47]: 4550 nM | GI50 [48]: 1760 nM | TGI [48]: 6600 nM | GI50 [49]: 1930 nM | TGI [49]: 6970 nM | GI50 [50]: 1210 nM | TGI [50]: 3170 nM | GI50 [51]: 2060 nM | TGI [51]: 10500 nM | GI50 [52]: 885 nM | TGI [52]: 4070 nM | GI50 [53]: 1780 nM | TGI [53]: 5030 nM | GI50 [54]: 1410 nM | TGI [54]: 3190 nM | GI50 [55]: 1240 nM | TGI [55]: 3750 nM | GI50 [56]: 1650 nM | TGI [56]: 5640 nM
